According to patent US5464617A, “β-lactam compounds” (Hoffmann-La Roche Inc., priority 1994, dated 1995):
Converted amounts (≈) assume the structure as drawn. Counter-ions that a name gives are not always drawn.

Assays:
E. coli 1346 = assay: Antibacterial activity of the products per se, serial dilution method in liquid medium (Test E); format: cell-based; settings: test E, product per se
Excerpt: The antibacterial activity of the products per se is illustrated on the basis of Table 3 hereinafter, the minimum inhibitory concentration […] in vitro against E. coli 1346 being determined using the serial dilution method in liquid medium: […]

[1] = tested on: Citrobacter freundii 1982; assay: MIC in vitro of a 1:4 combination of ceftriaxone with a compound of formula I (Test D); format: cell-based; settings: test D
Description: The minimum inhibitory concentration in vitro ([…]) of a 1:4 combination of ceftriaxone with a compound of formula I against Citrobacter freundii 1982 was measured and compiled in Table 2 hereinafter.

[2] = Table 4, 1:4 combination of ceftriaxone with the compound
[3] = Table 5, particularly preferred products
[4] = Table 5, particularly preferred products, 1:4 combination with ceftriaxone

Compound: CC(=O)N1C[C@H]2CC(CSc3nnc(N)s3)=C(C(=O)O)N3C(=O)[C@@H]1[C@@H]23 [19(i), (1aS,3aR,6bR)-2-Acetyl-5-(5-amino-1,3,4-thiadiazol-2-ylsulphanylmethyl)-1-oxo-1a,2,3,3a,4,6b-hexahydro-1H-2,6a-diazacyclobut[cd]indene-6-carboxylic acid sodium salt]
- MIC E. coli 1346 (E) (E. coli 1346; Table 4): 0.5 µg/mL
- MIC C. freundii 1982 (D) [1, 2]: 1 µg/mL

Compound: CC(=O)Nc1nnc(SCC2=C(C(=O)O)N3C(=O)[C@@H]4[C@H]3[C@H](C2)CN4C(C)=O)s1 [19(j), (1aS,3aR,6bR)-2-Acetyl-5-(5-acetylamino-1,3,4-thiadiazol-2-ylsulphanylmethyl)-1-oxo-1a,2,3,3a,4,6b-hexahydro-1H-2,6a-diazacyclobut[cd]indene-6-carboxylic acid sodium salt]
- MIC E. coli 1346 (E) (E. coli 1346; Table 4): 0.5 µg/mL
- MIC C. freundii 1982 (D) [1, 2]: 2 µg/mL

Compound: CC(C)(C)OC(=O)CCNC(=O)N1C[C@H]2CC(C[n+]3ccccc3)=C(C(=O)[O-])N3C(=O)[C@@H]1[C@@H]23 [23(f), (1aS,3aR,6bR)-2-(2-t-Butoxycarbonyl-ethylcarbamoyl)-1-oxo-5-(pyridin-1-yliomethyl)-1a,2,3,3a,4,6b-hexahydro-1H-2,6a-diazacyclobut[cd]indene-6-carboxylate]
- MIC E. coli 1346 (E) (E. coli 1346; Table 4): > 32 µg/mL
- MIC C. freundii 1982 (D) [1, 2]: 4 µg/mL

Compound: CC(=O)OCC1=C(C(=O)O)N2C(=O)[C@@H]3[C@H]2[C@H](C1)CN3C(=O)NCC(=O)OCc1ccccc1 [25(b), (1aS,3aR,6bR)-5-Acetoxymethyl-2-benzyloxycarbonylmethylcarbamoyl-1-oxo-1a,2,3,3a,4,6b-hexahydro-1H-2,6a-diazacyclobut[cd]indene-6-carboxylic acid sodium salt]
- MIC E. coli 1346 (E) (E. coli 1346; Table 4): 4 µg/mL
- MIC C. freundii 1982 (D) [1, 2]: 0.25 µg/mL

Compound: CC(=O)OCC1=C(C(=O)O)N2C(=O)[C@@H]3[C@H]2[C@H](C1)CN3C(C)=O [25(c), (1aS,3aR,6bR)-5-Acetoxymethyl-2-acetyl-1-oxo-1a,2,3,3a,4,6b-hexahydro-1H-2,6a-diazacyclobut[cd]indene-6-carboxylic acid sodium salt]
- MIC E. coli 1346 (E) (E. coli 1346; Table 4): 4 µg/mL
- MIC C. freundii 1982 (D) [1, 2]: 1 µg/mL

Compound: CC(=O)OCC1=C(C(=O)O)N2C(=O)[C@@H]3[C@H]2[C@H](C1)CN3C(=O)C(F)(F)F [25(d), (1aS,3aR,6bR)-5-Acetoxymethyl-2-trifluoroacetyl-1-oxo-1a,2,3,3a,4,6b-hexahydro-1H-2,6a-diazacyclobut[cd]indene-6-carboxylic acid sodium salt]
- MIC E. coli 1346 (E) (E. coli 1346; Table 4): 4 µg/mL
- MIC C. freundii 1982 (D) [1, 2]: 0.5 µg/mL

Compound: NC(=O)OCC1=C(C(=O)O)N2C(=O)[C@@H]3[C@H]2[C@H](C1)CN3C(=O)Nc1ccc(O)cc1 [27(a), (1aS,3aR,6bR)-5-Carbamoyloxymethyl-2-(4-hydroxyphenylcarbamoyl)-1-oxo-1a,2,3,3a,4,6b-hexahydro-1H-2,6a-diazacyclobut[cd]indene-6-carboxylic add sodium salt]
- MIC E. coli 1346 (E) (E. coli 1346; [3]): > 32 µg/mL
- MIC C. freundii 1982 (D) [1, 4]: ≤ 0.06 µg/mL

Compound: NC(=O)OCC1=C(C(=O)O)N2C(=O)[C@@H]3[C@H]2[C@H](C1)CN3C(=O)Nc1ccc(C(N)=O)cc1 [27(b), (1aS,3aR,6bR)-5-Carbamoyloxymethyl-2-(4-carbamoylphenylcarbamoyl)-1-oxo-1a,2,3,3a,4,6b-hexahydro-1H-2,6a-diazacyclobut[cd]indene-6-carboxylic acid sodium salt]
- MIC E. coli 1346 (E) (E. coli 1346; [3]): > 32 µg/mL
- MIC C. freundii 1982 (D) [1, 4]: ≤ 0.06 µg/mL

Compound: NC(=O)OCC1=C(C(=O)O)N2C(=O)[C@@H]3[C@H]2[C@H](C1)CN3C(=O)NC1CC1 [27(d), (1aS,3aR,6bR)-5-Carbamoyloxymethyl-2-cyclopropylcarbarmoyl-1-oxo-1a,2,3,3a,4,6b-hexahydro-1H-2,6a-diazacyclobut[cd]indene-6-carboxylic acid sodium salt]
- MIC E. coli 1346 (E) (E. coli 1346; Table 4): 32 µg/mL
- MIC C. freundii 1982 (D) [1, 2]: 0.25 µg/mL

Compound: NC(=O)OCC1=C(C(=O)O)N2C(=O)[C@@H]3[C@H]2[C@H](C1)CN3C(=O)NCc1ccc(S(N)(=O)=O)cc1 [27(e), (1aS,3aR,6bR)-5-Carbamoyloxymethyl-2-(4-sulphamoylbenzylcarbamoyl)-1-oxo-1a,2,3,3a,4,6b-hexahydro-1H-2,6a-diazacyclobut[cd]indene-6-carboxylic acid sodium salt]
- MIC E. coli 1346 (E) (E. coli 1346; Table 4): 32 µg/mL
- MIC C. freundii 1982 (D) [1, 2]: 0.5 µg/mL

Compound: NC(=O)OCC1=C(C(=O)O)N2C(=O)[C@@H]3[C@H]2[C@H](C1)CN3C(=O)NCc1cccs1 [27(f), (1aS,3aR,6bR)-5-Carbamoyloxymethyl-2-(thiophen-2-ylmethylcarbamoyl)-1-oxo-1a,2,3,3a,4,6b-hexahydro-1H-2,6a-diaza-cyclobut[cd]indene-6-carboxylic acid sodium salt]
- MIC E. coli 1346 (E) (E. coli 1346; Table 4): ≤ 0,25 μg/ml
- MIC C. freundii 1982 (D) [1, 2]: 0.25 µg/mL

Compound: NC(=O)OCC1=C(C(=O)O)N2C(=O)[C@@H]3[C@H]2[C@H](C1)CN3C(=O)NCCc1cccs1 [27(g), (1aS,3aR,6bR)-5-Carbamoyloxymethyl-1-oxo-2-(2-thiophen-2-yl-ethylcarbamoyl)-1a,2,3,3a,4,6b-hexahydro-1H-2,6a-diazacyclobut[cd]indene-6-carboxylic acid sodium salt]
- MIC E. coli 1346 (E) (E. coli 1346; Table 4): > 32 µg/mL
- MIC C. freundii 1982 (D) [1, 2]: 0.5 µg/mL

Compound: NC(=O)OCC1=C(C(=O)O)N2C(=O)[C@@H]3[C@H]2[C@H](C1)CN3C(=O)NCc1ccc(O)cc1 [27(h), (1aS,3aR,6bR)-5-Carbamoyloxymethyl-2-(4-hydroxybenzylcarbamoyl)-1-oxo-1a,2,3,3a,4,6b-hexahydro-1H-2,6a-diaza-cyclobut[cd]indene-6-carboxylic acid sodium salt]
- MIC E. coli 1346 (E) (E. coli 1346; Table 4): > 32 µg/mL
- MIC C. freundii 1982 (D) [1, 2]: 0.25 µg/mL

Compound: C=CCOC(=O)N1C[C@H]2OC(CSc3nnnn3C)=C(C(=O)O)N3C(=O)[C@@H]1[C@@H]23 [29(e) Byproduct]
- MIC E. coli 1346 (E) (E. coli 1346; Table 4): 4 µg/mL (≈ 9.79 µM)
- MIC C. freundii 1982 (D) [1, 2]: 1 µg/mL

Compound: O=C(Cn1nnnc1SCC1=C(C(=O)O)N2C(=O)[C@H]3NC[C@@H](O1)[C@H]32)NCCc1ccccc1 [29(h), (1aS,3aR,6bS)-1-Oxo-5-(1-(phenylethyl-carbamoylmethyl)-1H-tetrazol-5-ylsulphanylmethyl)-1,1a,2,3,3a,6b-hexahydro-4-oxa-2,6a-diazacydobut[cd]indene-6-carboxylic acid]
- MIC E. coli 1346 (E) (E. coli 1346; Table 4): > 32 µg/mL
- MIC C. freundii 1982 (D) [1, 2]: 32 µg/mL

Compound: NC(=O)CNC(=O)Cn1nnnc1SCC1=C(C(=O)O)N2C(=O)[C@H]3NC[C@@H](O1)[C@H]32 [29(i), (1aS,3aR,6bS)-5-(1-(Carbamoylmethyl-carbamoylmethyl)-1H-tetrazol-5-ylsulphanylmethyl)-1-oxo-1,1a,2,3,3a,6b-hexahydro-4-oxa-2,6a-diazacyclobut[cd]indene-6-carboxylic acid]
- MIC E. coli 1346 (E) (E. coli 1346; Table 4): 8 µg/mL (≈ 18.9 µM)
- MIC C. freundii 1982 (D) [1, 2]: 8 µg/mL

Compound: O=C(O)C1=C(CSc2nnnn2CC(=O)N2CCOCC2)O[C@@H]2CN[C@@H]3C(=O)N1[C@@H]32 [29(l), (1aS,3aR,6bS)-5-(1-(2-Morpholin-4-yl-2-oxo-ethyl)-1H-tetrazol-5-ylsulphanylmethyl)-1-oxo-1,1a,2,3,3a,6 b-hexahydro-4-oxa-2,6a-diazacyclobut[cd]indene-6-carboxylic acid]
- MIC E. coli 1346 (E) (E. coli 1346; Table 4): > 32 µg/mL
- MIC C. freundii 1982 (D) [1, 2]: 32 µg/mL
